Earlier results as cited in patent US20160101148A1, “TREATMENT AND PREVENTION OF BACTERIAL SKIN INFECTIONS USING ORITAVANCIN” (priority 2013, published 2016).
Converted amounts (≈) assume the structure as drawn.

Tested on: MRSA isolates
Conditions: MRSA isolates in a surveillance study (Arhin et al., 2009); cited from earlier work

## CN[C@H](CC(C)C)C(=O)N[C@H]1C(=O)N[C@@H](CC(N)=O)C(=O)N[C@H]2C(=O)N[C@H]3C(=O)N[C@H](C(=O)N[C@H](C(=O)O)c4cc(O)cc(O)c4-c4cc3ccc4O)[C@H](O[C@H]3C[C@](C)(N)[C@@H](O)[C@H](C)O3)c3ccc(c(Cl)c3)Oc3cc2cc(c3O[C@@H]2O[C@H](CO)[C@@H](O)[C@H](O)[C@H]2O[C@H]2C[C@](C)(NCc3ccc(-c4ccc(Cl)cc4)cc3)[C@@H](O)[C@H](C)O2)Oc2ccc(cc2Cl)[C@H]1O [Oritavancin, N^DISACC-(4-(4-chlorophenyl)benzyl)A82846B]
  MIC90: 0.12 µg/mL (≈ 0.0669 µM)
